The target of this test is alpha-L-fucosidase (Bos taurus). As to the kind of experiment: Inhibitory activity against alpha-Fucosidase in bovine kidney.

Take `C[C@@H]1CC(NCCc2ccccc2)[C@@H](O)[C@@H](O)[C@@H]1O` (some centres not stated): 7.5 µM corresponded to half-maximal inhibition (IC50). The figure for `CCCCCCCCCCCCN[C@H]1CC(C)[C@@H](O)C(O)[C@@H]1O` (stereo partly drawn) [(1R,3R,4S)-4-Dodecylamino-6-methyl-cyclohexane-1,2,3-triol] is 1.2 µM.
